The values below are quoted from earlier work in patent US9630917B2, “Cysteamine prodrugs, pharmaceutical compositions thereof, and methods of use” (priority 2015, dated 2017).

The conditions of this series: oral absorption; Smolin et al., Ped Res. 1988; 23, 616-620.

Regarding `NCCS` [cysteamine], the absolute bioavailability entry was “about 10%”.
